Source: patent publication US20250222168A1, “METHOD OF FORMING AN ALIGNED TISSUE OR TISSUE CONSTRUCT, A TISSUE OR TISSUE CONSTRUCT, AND BIOINK” (PRESIDENT AND FELLOWS OF HARVARD COLLEGE, priority 2022, published 2025)

Tests used:
[1] = test system: aOBBs (anisotropic organ building blocks of hiPSC-CMs and hNDFs); test: aOBB compaction upon harvest from micropillar array after pre-incubation in ROCK inhibitor; format: cell-based, human; conditions: FIGS. 8F, 8G; pre-incubation of aOBBs (50 uM, 1 hour)
Procedure: FIGS. 8A-8G depict scalable generation of cellularly aligned, anisotropic organ building blocks (OBBs). […] Scale bars, top: 200 μm, bottom: 20 μm. (FIG. 8B) Fourier analysis used to quantify the high degree of sarcomere alignment. (FIG. 8C) Without capped ends, aOBBs slide off micro-pillars overtime. (FIG. 8D) aOBB force generation on Day 3. n=5 separate passages. […] Scale bars, 1000 μm. In order to prevent aOBB compaction upon removal from pillars, the aOBBs may be pre-incubated in 50 uM rock inhibitor (Y-27632) for a period of time, such as, e.g., 1 hour. Second, 1 mL of 10% gelbrin (w/v) solution is prepared in DMEM/F12 (Gibco). Third, DMEM High Glucose+10% FBS is supplemented with 50 μM […] (Biogems). Fourth, 100 U/mL thrombin solution is prepared in DMEM High Glucose+10% FBS. All ECM and media solutions were held at 37° C. using a hotplate. […] After 1 h, the aOBBs were harvested manually using a P1000 pipette with wide-bore tips. The wide-bore tips were treated with 3% bovine serum albumin (BSA) to prevent adsorption of the aOBBs. aOBBs were collected three wells at a time and transferred into a single 50 mL tube. Upon collection, the aOBBs were allowed to settle under gravity for 5 min. After the supernatant was aspirated, the volume (x mL) of compacted aOBBs was estimated. We subsequently wash compacted aOBBs in 3× volume of gelbrin bioink. […]

[2] = test system: aOBBs (anisotropic organ building blocks of hiPSC-CMs and hNDFs); test: aOBB contraction (force generation on micro-pillars) with ROCK inhibitor and after washing; format: cell-based, human; conditions: FIG. 8E, n=10 aOBBs from 1 passage
Excerpt: FIGS. 8A-8G depict scalable generation of cellularly aligned, anisotropic organ building blocks (OBBs). […] Scale bars, top: 200 μm, bottom: 20 μm. (FIG. 8B) Fourier analysis used to quantify the high degree of sarcomere alignment. (FIG. 8C) Without capped ends, aOBBs slide off micro-pillars overtime. (FIG. 8D) aOBB force generation on Day 3. n=5 separate passages. […] Scale bars, 1000 μm. FIGS. 14A-14C depict contractile force measurements for aligned cardiac tissues. Force measurements are quantified using Euler-Bernoulli beam theory. Image and schematic representations of (FIG. 14A) micro- and (FIG. 14B) macro-pillars were quantified using an Instron. Micro- and macro-pillar dimensions were measured from high resolution images recorded across 20 independent samples. (FIG. 14C) The material and geometric information were combined to numerically estimate cantilever spring constants and translate pillar displacement to force generation. Based upon the total concentration of iPSC-CMs, an appropriate volume of 1× rat tail collagen I (Corning) solution was prepared on ice. An appropriate volume of collagen I is calculated based upon a desired final concentration of 1.25 mg/mL. Then y/100 mL of 250 mM CaCl2, ˜x/40 mL of 1 N NaOH, and y mL of collagen I are added, in order, to the basal DMEM high glucose media. […]

C[C@@H](N)[C@H]1CC[C@H](C(=O)Nc2ccncc2)CC1 [Y-27632]
effect on aOBB compaction upon harvest [1]: blunts compaction upon harvest from micropillar array
recovery of aOBB contractile function ([2]; after washing out ROCK inhibitor): Full contractile function is recovered after washing
effect on aOBB contraction ([2]; during exposure to ROCK inhibitor): temporarily blunts aOBB contraction
